The source of these data is patent publication US20250230155A1 (Vanderbilt University, priority 2021, published 2025).

Broadly, the Emax is the maximal effect, on the per cent scale that the assay sets. As a reminder, the EC50 is the midpoint of the concentration-response curve.

In the experiment the target is T1, human mAChR M4 (Homo sapiens, UniProt P08173).
T1 construct: expressed in transfected cells
T1 sequence (P08173 1-479): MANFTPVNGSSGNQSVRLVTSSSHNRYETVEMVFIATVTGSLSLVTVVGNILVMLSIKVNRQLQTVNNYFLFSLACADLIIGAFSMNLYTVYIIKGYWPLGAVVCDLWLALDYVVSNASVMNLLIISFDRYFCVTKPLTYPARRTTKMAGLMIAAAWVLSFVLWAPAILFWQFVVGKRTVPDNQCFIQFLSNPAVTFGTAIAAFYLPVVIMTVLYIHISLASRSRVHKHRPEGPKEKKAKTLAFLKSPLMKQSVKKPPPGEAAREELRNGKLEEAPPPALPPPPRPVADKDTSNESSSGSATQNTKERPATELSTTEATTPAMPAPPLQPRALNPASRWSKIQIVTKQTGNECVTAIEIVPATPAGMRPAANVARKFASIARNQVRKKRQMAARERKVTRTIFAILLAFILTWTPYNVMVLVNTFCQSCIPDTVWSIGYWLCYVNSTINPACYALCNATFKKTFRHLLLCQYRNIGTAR
Nature of the experiment: mAChR M4 cell-based functional assay (calcium mobilization, CHO-K1 hM4-Gqi5 cells). The settings on record: for Emax: CHO-K1; for EC50: positive allosteric modulator activity, increase in the EC20 acetylcholine response, CHO-K1 hM4-Gqi5 cells, read-out: Human M4 EC50; for Emax at 30 µM: CHO-K1, % ACh maximum at 30 μM, human M4. Put shortly:
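Fluorescent calcium read-out (Fluo-4 AM, FDSS, 1 Hz) in hM4-Gqi5 CHO-K1 cells, 11-point 1:3 compound series. Agonism scored on compound addition, PAM activity as increase of the 144 s EC20 acetylcholine response, antagonism as decrease of the 230 s EC80 response; four-parameter logistic fits give EC50 and Emax.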
Background: A change in cytosolic calcium serves as a functional read-out for many receptors and channels.

As to `Cc1nc(Cl)c(C)c(N2CCc3ncc(N)cc3C2)n1` [compound 213, 6-(6-chloro-2,5-dimethylpyrimidin-4-yl)-5,6,7,8-tetrahydro-1,6-naphthyridin-3-amine], the maximal effect (Emax) is 94% and the EC50 came to 1.89 µM.
In the case of `Cc1nn(C)cc1-c1cnc2c(c1)CN(c1nc(NC3CCOC3)nc(C)c1C)CC2` (stereo not drawn) [compound 273, 4-(3-(1,3-dimethyl-1H-pyrazol-4-yl)-7,8-dihydro-1,6-naphthyridin-6(5H)-yl)-5,6-dimethyl-N-(tetrahydrofuran-3-yl)pyrimidin-2-amine], the Emax at 30 µM turned out to be 92% and the concentration giving a half-maximal response (EC50) was 0.639 µM.
For `Cc1cc(C(=O)N2CC3(C2)CC(F)(F)C3)nnc1N1CCc2ncc(N3CCCn4nccc43)cc2C1` [Example 555, (6,6-difluoro-2-azaspiro[3.3]heptan-2-yl)(6-(3-(6,7-dihydropyrazolo[1,5-a]pyrimidin-4(5H)-yl)-7,8-dihydro-1,6-naphthyridin-6(5H)-yl)-5-methylpyridazin-3-yl)methanone], the Emax at 30 µM came to 83% and the EC50 worked out at 0.048 µM.
The matching figures for `Cc1c(C#N)nnc(N2CCc3ncc(C(C)(O)C(F)(F)F)cc3C2)c1C` (stereo not drawn) [Example 425, 4,5-dimethyl-6-(3-(1,1,1-trifluoro-2-hydroxypropan-2-yl)-7,8-dihydro-1,6-naphthyridin-6(5H)-yl)pyridazine-3-carbonitrile]: 61% and 0.621 µM.
The matching figures for `Cc1cc(C(=O)N2CC(F)(F)C2)nnc1N1CCc2ncc(-c3ccnn3C)cc2C1` [Example 567, (3,3-difluoroazetidin-1-yl)(5-methyl-6-(3-(1-methyl-1H-pyrazol-5-yl)-7,8-dihydro-1,6-naphthyridin-6(5H)-yl)pyridazin-3-yl)methanone]: 75% and 0.07 µM.
As to `Cc1cc(C(=O)NC(C)C)cnc1N1CCc2ncccc2C1` [compound 58, 6-(7,8-dihydro-5H-1,6-naphthyridin-6-yl)-N-isopropyl-5-methyl-pyridine-3-carboxamide], the maximum response (Emax) at 30 µM was 51% and the half-maximal effective concentration (EC50) is at least 10 µM.
The matching figures for `Cc1cc(C#N)cnc1N1CCc2ncc(-c3cnn(C4CCCCC4)c3)cc2C1` [compound 99, 6-[3-(1-cyclohexylpyrazol-4-yl)-7,8-dihydro-5H-1,6-naphthyridin-6-yl]-5-methyl-pyridine-3-carbonitrile]: 57% and 0.74 µM.
The matching figures for `Cc1c(C#N)nnc(N2CCc3ncc(-c4ccncc4)cc3C2)c1C` [compound 74, 4,5-dimethyl-6-[3-(4-pyridyl)-7,8-dihydro-5H-1,6-naphthyridin-6-yl]pyridazine-3-carbonitrile]: 87% and 0.368 µM.
The matching figures for `Cc1nc(C)c(-c2cnc3c(c2)CN(c2ncc(C#N)cc2C)CC3)s1` [compound 184, 6-[3-(2,4-dimethylthiazol-5-yl)-7,8-dihydro-5H-1,6-naphthyridin-6-yl]-5-methyl-pyridine-3-carbonitrile]: 111% and 0.106 µM.
For `[2H]C1([2H])Cc2ncc(Nc3cc(C)ncc3F)cc2C([2H])([2H])N1c1nnc(C#N)cc1C` [Example 603, 6-(3-((5-fluoro-2-methylpyridin-4-yl)amino)-7,8-dihydro-1,6-naphthyridin-6(5H)-yl-5,5,7,7-d4)-5-methylpyridazine-3-carbonitrile], the Emax at 30 µM turned out to be 97% and the concentration for a half-maximal effect (EC50) was 0.028 µM.
`Cc1ccc(-c2cnc3c(c2)CN(c2nnc(C#N)cc2C)CC3)cn1` [Example 392, 5-methyl-6-(3-(6-methylpyridin-3-yl)-7,8-dihydro-1,6-naphthyridin-6(5H)-yl)pyridazine-3-carbonitrile]: the maximal effect (Emax) at 30 µM amounted to 85% and the EC50 came out at 0.458 µM.
The matching figures for `Cc1nc(NC2CCOC2)nc(N2CCc3ncc(Nc4ccnn4C)cc3C2)c1C` (stereo not drawn) [compound 279, 6-(5,6-dimethyl-2-((tetrahydrofuran-3-yl)amino)pyrimidin-4-yl)-N-(1-methyl-1H-pyrazol-5-yl)-5,6,7,8-tetrahydro-1,6-naphthyridin-3-amine]: 103% and 0.191 µM.
The matching figures for `Cc1cc(C#N)nnc1N1CCc2ncc(N3CCOc4ncccc43)cc2C1` [Example 391, 6-(3-(2,3-dihydro-1H-pyrido[2,3-b][1,4]oxazin-1-yl)-7,8-dihydro-1,6-naphthyridin-6(5H)-yl)-5-methylpyridazine-3-carbonitrile]: 89% and 0.053 µM.
For `Cc1cc(C#N)nnc1N1CCc2ncc(C3CC3)cc2C1` [Example 393, 6-(3-cyclopropyl-7,8-dihydro-1,6-naphthyridin-6(5H)-yl)-5-methylpyridazine-3-carbonitrile], the Emax was found to be 88% and the EC50 amounted to 0.111 µM.
Consider `Cc1nc(Cl)c(C)c(N2CCc3ncc(-c4cnn(CC5CC5)c4)cc3C2)n1` [compound 194, 6-(6-chloro-2,5-dimethyl-pyrimidin-4-yl)-3-[1-(cyclopropylmethyl)pyrazol-4-yl]-7,8-dihydro-5H-1,6-naphthyridine], for which the Emax at 30 µM amounted to 93% and the EC50 was determined as 0.211 µM.
For the compound `Cc1cc(C#N)nnc1N1CCc2ncc(-c3c(C)noc3C)cc2C1` [Example 401, 6-(3-(3,5-dimethylisoxazol-4-yl)-7,8-dihydro-1,6-naphthyridin-6(5H)-yl)-5-methylpyridazine-3-carbonitrile], the Emax at 30 µM stood at 76% and the EC50 was determined as 0.522 µM.
The matching figures for `Cc1ncc(-c2cnc3c(c2)CN(c2ncc(C#N)cc2C)CC3)s1` [compound 185, 5-methyl-6-[3-(2-methylthiazol-5-yl)-7,8-dihydro-5H-1,6-naphthyridin-6-yl]pyridine-3-carbonitrile]: 101% and 0.211 µM.
The matching figures for `COc1ccc(CNc2cnc3c(c2)CN(c2ncc(C#N)cc2C)CC3)cc1F` [Example 5]: 63% and 2.4 µM.
`Cc1cc(C#N)cnc1N1CCc2ncc(Nc3ccc(F)cc3)cc2C1` [Example 2]: the maximal effect (Emax) at 30 µM came to 85% and the EC50 came out at 0.457 µM.
The matching figures for `Cc1cc(C(=O)N2CCCC2)nnc1N1CCc2ncc(C(F)(F)F)cc2C1` [Example 502, (5-methyl-6-(3-(trifluoromethyl)-7,8-dihydro-1,6-naphthyridin-6(5H)-yl)pyridazin-3-yl)(pyrrolidin-1-yl)methanone]: 105% and 3.53 µM.
Consider `Cc1nc(Cl)c(C)c(N2CCc3ncc(Nc4ccc(F)cc4F)cc3C2)n1` [compound 87, 6-(6-chloro-2,5-dimethyl-pyrimidin-4-yl)-N-(2,4-difluorophenyl)-7,8-dihydro-5H-1,6-naphthyridin-3-amine], for which the Emax at 30 µM was found to be 82% and the concentration giving a half-maximal response (EC50) turned out to be 0.815 µM.
The matching figures for `Cc1nc(N2CCOCC2)nc(N2CCc3ncc(Nc4ccnn4C)cc3C2)c1C` [compound 276, 6-(5,6-dimethyl-2-morpholinopyrimidin-4-yl)-N-(1-methyl-1H-pyrazol-5-yl)-5,6,7,8-tetrahydro-1,6-naphthyridin-3-amine]: 100% and 0.377 µM.
Consider `[2H]C([2H])([2H])c1cnc2c(c1)CN(c1nnc(C(=O)NC3(c4cccnc4)CC3)cc1C)CC2` [Example 580, 5-methyl-6-(3-(methyl-d3)-7,8-dihydro-1,6-naphthyridin-6(5H)-yl)-N-(1-(pyridin-3-yl)cyclopropyl)pyridazine-3-carboxamide], for which the maximum response (Emax) at 30 µM was determined as 75% and the half-maximal effective concentration (EC50) turned out to be 0.108 µM.
The matching figures for `Cc1nn(C)cc1-c1cnc2c(c1)CN(c1nc(N3CCCC3)nc(C)c1C)CC2` [compound 271, 3-(1,3-dimethyl-1H-pyrazol-4-yl)-6-(5,6-dimethyl-2-(pyrrolidin-1-yl)pyrimidin-4-yl)-5,6,7,8-tetrahydro-1,6-naphthyridine]: 78% and 0.214 µM.
For `COc1cc(-c2cnc3c(c2)CN(c2nnc(C#N)c(C)c2C)CC3)ccn1` [compound 76, 6-[3-(2-methoxy-4-pyridyl)-7,8-dihydro-5H-1,6-naphthyridin-6-yl]-4,5-dimethyl-pyridazine-3-carbonitrile], the Emax at 30 µM came out at 76% and the 50% effective concentration (EC50) stood at 1.49 µM.
The matching figures for `Cc1nc(Cl)c(C)c(N2CCc3ncc(Oc4cccnc4)cc3C2)n1` [compound 207, 6-(6-chloro-2,5-dimethyl-pyrimidin-4-yl)-3-(3-pyridyloxy)-7,8-dihydro-5H-1,6-naphthyridine]: 86% and 0.37 µM.
The matching figures for `CCCn1cc(-c2cnc3c(c2)CN(c2ncc(C#N)cc2C)CC3)cn1` [compound 108, 5-methyl-6-[3-(1-propylpyrazol-4-yl)-7,8-dihydro-5H-1,6-naphthyridin-6-yl]pyridine-3-carbonitrile]: 90% and 0.33 µM.
